# Values joined by “and” are separate entries in the source; they are usually repeats but may differ in a detail not shown here. Equal entries are not always repeated.
# Assays:
# [1] = Potency retention (HPLC stability) of azalide in aqueous propylene glycol/citric acid compositions; type: physicochemical; settings: 0.1 M citric acid
# Protocol: As used in this application, the term “potency” means the amount of an azalide compound present in a “test” sample subjected to a particular set of experimental conditions during a particular time interval, relative to the amount of the azalide compound present in an otherwise identical “control” sample stored at 5° C. for the same time interval. Upon completion of the experiment for a given sample, the test and control samples are typically subjected to appropriate processing steps to allow accurate determination of the amount of the azalide compound. Relative amounts of azalide compound in the test and control samples may be determined by any number of means which are well-known in the art, such as high performance liquid chromatography (“HPLC”), nuclear magnetic resonance spectroscopy (“NMR”), gas chromatography (“GC”), mass spectrometry (“MS”), liquid chromatography/mass spectrometry (“LC/MS”), GC/MS, and thin layer chromatography (“TLC”).
# Preferred methods for determining that a stable azalide composition has been obtained include gel chromatography, thin-layer chromatography, and HPLC. More preferably, HPLC is used. To monitor the compositions of the invention for potency, after dilution to final volume and sterilization by filtration, the compositions were subdivided into 3.5 mL glass vials which were sealed with rubber stoppers and an aluminum crimp. For the tests reported below, approximately 10 vials containing 2.5 mL each were prepared.
# Approximately 30 mL of each composition listed in Table 1 below was prepared as follows:
# 1) Sufficient citric acid was added to Water for Injection to produce a solution having a final concentration of acid of 0.1 M;
# 2) The compound of formula 1a or 1b was added in an amount to produce a final azalide concentration of 100 mg/mL (0.12 mmol/mL of the composition), and the mixture was stirred until the azalide was dissolved;
# 3) Propylene glycol was added to produce a concentration in the final mixture of from about 25% to about 75% by weight relative to the total volume;
# 4) The pH was adjusted by addition of 10% aqueous HCl or 10 M aqueous NaOH as necessary;
# 5) Water for Injection was added to bring the volume to 30 mL;
# 6) Each sample was subdivided by filtration through a 0.22 micron Millex GV filter into 3.5 mL glass vials which were each sealed with a rubber stopper and an overseal consisting of an aluminum crimp. Approximately 10 vials containing 2.5 mL each were prepared for each sample.
# To monitor the stability of the azalide compositions, vials were assayed by HPLC after exposure to elevated temperatures for a period of time. Aliquots were removed from vials and diluted with a mixture of 15% 10 mM potassium phosphate buffer, pH 6.5, 85% 1:1 (v/v) acetonitrile:methanol to a concentration of approximately 1.0 mg of the compound of formula 1 per mL total sample volume. Diluted samples were subjected to chromatography in a Waters Alliance 2690 HPLC system having a 2487 UV detector. The column was a Waters Symmetry C-18, 5 micron (250×4.6 mm), the mobile phase was the same as the phosphate/acetonitrile/methanol diluent above and the flow rate was 1 mL/minute. Peaks were detected by monitoring ultraviolet absorption at 210 nm. Relative amounts of azalide compound in the experimental samples and the controls were determined by taking the ratio of their relative chromatogram-peak areas. Although HPLC was used in this experiment, other known methods, including NMR, GC, MS, LC/MS, GC/MS, and TLC can be used to evaluate the potency of the compound of formula 1.
# The results are reported in Table 1 below as a percentage of the compound of formula 1 remaining after exposure to various temperature and duration conditions, relative to the amount of the compound present in an otherwise identical sample stored at 5° C. for the same time interval.
# E. coli = test: Assay I liquid dilution MIC, E. coli; type: cell-based; settings: Escherichia coli, 18 h, read-out: MIC against E. coli
# [2] = test system: Pasteurella multocida (strain 59A067); test: Assay I liquid dilution MIC, P. multocida; type: cell-based; settings: 100% inhibition of growth, 37° C., 18 hours, BHI broth, read-out: MIC against P. multocida
# Protocol: This assay employs conventional methodology and interpretation criteria and is designed to test for activity against Pasteurella multocida, using the liquid dilution method in microliter format. A single colony of P. multocida (strain 59A067) is inoculated into 5 mL of brain heart infusion (BHI) broth. The azalide formulation is prepared by solubilizing 1 mg of the azalide composition in 125 μL of dimethylsulfoxide (DMSO). Dilutions of the azalide compositions are prepared using uninoculated BHI broth. The concentrations of the azalide compounds used range from 200 μg/mL to 0.098 μg/mL by two-fold serial dilutions. The P. multocida inoculated BHI is diluted with uninoculated BHI broth to make a 10^4 cell suspension per 200 μL. The BHI cell suspensions are mixed with respective serial dilutions of the azalide compositions, and incubated at 37° C. for 18 hours.
# Accordingly, as expected, the azalide compounds used in this invention are active against a variety of organisms.
# S. aureus = test: Assay I liquid dilution MIC, S. aureus; type: cell-based; settings: Staphylococcus aureus, 18 h, read-out: MIC against S. aureus
# [3] = preparation 1: propylene glycol 50 w/v %, pH 4.5, 100 mg/mL azalide
# [4] = preparation 2: propylene glycol 25 w/v %, pH 5.0, 100 mg/mL azalide
# [5] = preparation 3: propylene glycol 75 w/v %, pH 5.0, 100 mg/mL azalide
# [6] = preparation 7: propylene glycol 25 w/v %, pH 6.0, 100 mg/mL azalide
# [7] = preparation 8: propylene glycol 75 w/v %, pH 6.0, 100 mg/mL azalide
# [8] = preparation 9: propylene glycol 50 w/v %, pH 6.5, 100 mg/mL azalide
# [9] = preparations 4, 5, 6: propylene glycol 50 w/v %, pH 5.5, 100 mg/mL azalide
structure (smiles),measurement,setting,value
"CC[C@H]1OC(=O)[C@H](C)[C@@H](O[C@H]2C[C@@](C)(OC)[C@](O)(CNC(C)C)[C@H](C)O2)[C@H](C)[C@@H](O[C@@H]2O[C@H](C)C[C@H](N(C)C)[C@H]2O)[C@](C)(O)C[C@@H](C)CN(C)[C@H](C)[C@@H](O)[C@]1(C)O [Compound 1a, 1-Oxa-6-azacyclopentadecan-15-one, 13-[[2,6-dideoxy-3-C-methyl-3-O-methyl-4-C-[[(1-methylethyl)amino]methyl]-α-L-ribo-hexopyranosyl]oxy]-2-ethyl-3,4,10-trihydroxy-3,5,6,8,10,12,14-heptamethyl-11-[[3,4,6-trideoxy-3-(dimethylamino)-β-D-xylo-hexopyranosyl]oxy]-, (2R,3S,4R,5R,8R,10R,11R,12S,13S,14R)-]","Potency (% of 5° C.) 6 weeks, 50° C.",[1]; [3],91.9%
same,"Potency (% of 5° C.) 12 weeks, 50° C.",[1]; [3],91.3%
same,"Potency (% of 5° C.) 6 weeks, 50° C.",[1]; [4],93.6%
same,"Potency (% of 5° C.) 12 weeks, 50° C.",[1]; [4],87.9%
same,"Potency (% of 5° C.) 6 weeks, 50° C.",[1]; [5],96.0%
same,"Potency (% of 5° C.) 12 weeks, 50° C.",[1]; [5],102.6%
same,"Potency (% of 5° C.) 6 weeks, 50° C.",[1]; [6],90.6%
same,"Potency (% of 5° C.) 12 weeks, 50° C.",[1]; [6],85.7%
same,"Potency (% of 5° C.) 6 weeks, 50° C.",[1]; [7],89.5%
same,"Potency (% of 5° C.) 12 weeks, 50° C.",[1]; [7],89.8%
same,"Potency (% of 5° C.) 6 weeks, 50° C.",[1]; [8],84.1%
same,"Potency (% of 5° C.) 12 weeks, 50° C.",[1]; [8],75.9%
same,"Potency (% of 5° C.) 6 weeks, 50° C.",[1]; [9],96.3% and 95.6% and 93.9%
same,"Potency (% of 5° C.) 12 weeks, 50° C.",[1]; [9],92.9% and 91.4% and 90.4%
same,MIC,E. coli,0.39 µg/mL
same,MIC,[2],0.05 µg/mL
same,MIC,S. aureus,0.2 µg/mL
"CC[C@H]1OC(=O)[C@H](C)[C@@H](O[C@H]2C[C@@](C)(OC)[C@](O)(CN(C)CC)[C@H](C)O2)[C@H](C)[C@@H](O[C@@H]2O[C@H](C)C[C@H](N(C)C)[C@H]2O)[C@](C)(O)C[C@@H](C)CN(C)[C@H](C)[C@@H](O)[C@]1(C)O [Compound 1b, 1-Oxa-6-azacyclopentadecan-15-one, 13-[[2,6-dideoxy-4-C-[(ethylmethylamino)methyl]-3-C-methyl-3-O-methyl-α-L-ribo-hexopyranosyl]oxy]-2-ethyl-3,4,10-trihydroxy-3,5,6,8,10,12,14-heptamethyl-11-[[3,4,6-trideoxy-3-(dimethylamino)-β-D-xylo-hexopyranosyl]oxy]-, (2R,3S,4R,5R,8R,10R,11R,12S,13S,14R)-]","Potency (% of 5° C.) 6 weeks, 50° C.",[1]; [3],96.1%
same,"Potency (% of 5° C.) 12 weeks, 50° C.",[1]; [3],92.1%
same,"Potency (% of 5° C.) 6 weeks, 50° C.",[1]; [4],96.5%
same,"Potency (% of 5° C.) 12 weeks, 50° C.",[1]; [4],92.4%
same,"Potency (% of 5° C.) 6 weeks, 50° C.",[1]; [5],98.8%
same,"Potency (% of 5° C.) 12 weeks, 50° C.",[1]; [5],96.1%
same,"Potency (% of 5° C.) 6 weeks, 50° C.",[1]; [6],90.0%
same,"Potency (% of 5° C.) 12 weeks, 50° C.",[1]; [6],81.5%
same,"Potency (% of 5° C.) 6 weeks, 50° C.",[1]; [7],93.8%
same,"Potency (% of 5° C.) 12 weeks, 50° C.",[1]; [7],94.0%
same,"Potency (% of 5° C.) 6 weeks, 50° C.",[1]; [8],86.5%
same,"Potency (% of 5° C.) 12 weeks, 50° C.",[1]; [8],76.5%
same,"Potency (% of 5° C.) 6 weeks, 50° C.",[1]; [9],94.9% and 93.0% and 93.3%
same,"Potency (% of 5° C.) 12 weeks, 50° C.",[1]; [9],91.8% and 96.1% and 95.3%
same,MIC,E. coli,0.39 µg/mL
same,MIC,[2],0.05 µg/mL
same,MIC,S. aureus,0.39 µg/mL
